Broadly, the Ki is the equilibrium dissociation constant of an inhibitor or competing ligand from its target.

Among the data in ChEMBL document CHEMBL3734753, “Phenyl Ether- and Aniline-Containing 2-Aminoquinolines as Potent and Selective Inhibitors of Neuronal Nitric Oxide Synthase” (J Med Chem, 2015) are Ki and Ratio Ki values, retold here.

The target in assay [1] is Nitric oxide synthase 1 (Rattus norvegicus, UniProt P29476). Description: Inhibition of wild type recombinant rat nNOS expressed in Escherichia coli assessed as nitric oxide production by hemoglobin capture assay.
Nitric oxide synthase 1 (Rattus norvegicus, UniProt P29476), sequence (P29476 whole entry): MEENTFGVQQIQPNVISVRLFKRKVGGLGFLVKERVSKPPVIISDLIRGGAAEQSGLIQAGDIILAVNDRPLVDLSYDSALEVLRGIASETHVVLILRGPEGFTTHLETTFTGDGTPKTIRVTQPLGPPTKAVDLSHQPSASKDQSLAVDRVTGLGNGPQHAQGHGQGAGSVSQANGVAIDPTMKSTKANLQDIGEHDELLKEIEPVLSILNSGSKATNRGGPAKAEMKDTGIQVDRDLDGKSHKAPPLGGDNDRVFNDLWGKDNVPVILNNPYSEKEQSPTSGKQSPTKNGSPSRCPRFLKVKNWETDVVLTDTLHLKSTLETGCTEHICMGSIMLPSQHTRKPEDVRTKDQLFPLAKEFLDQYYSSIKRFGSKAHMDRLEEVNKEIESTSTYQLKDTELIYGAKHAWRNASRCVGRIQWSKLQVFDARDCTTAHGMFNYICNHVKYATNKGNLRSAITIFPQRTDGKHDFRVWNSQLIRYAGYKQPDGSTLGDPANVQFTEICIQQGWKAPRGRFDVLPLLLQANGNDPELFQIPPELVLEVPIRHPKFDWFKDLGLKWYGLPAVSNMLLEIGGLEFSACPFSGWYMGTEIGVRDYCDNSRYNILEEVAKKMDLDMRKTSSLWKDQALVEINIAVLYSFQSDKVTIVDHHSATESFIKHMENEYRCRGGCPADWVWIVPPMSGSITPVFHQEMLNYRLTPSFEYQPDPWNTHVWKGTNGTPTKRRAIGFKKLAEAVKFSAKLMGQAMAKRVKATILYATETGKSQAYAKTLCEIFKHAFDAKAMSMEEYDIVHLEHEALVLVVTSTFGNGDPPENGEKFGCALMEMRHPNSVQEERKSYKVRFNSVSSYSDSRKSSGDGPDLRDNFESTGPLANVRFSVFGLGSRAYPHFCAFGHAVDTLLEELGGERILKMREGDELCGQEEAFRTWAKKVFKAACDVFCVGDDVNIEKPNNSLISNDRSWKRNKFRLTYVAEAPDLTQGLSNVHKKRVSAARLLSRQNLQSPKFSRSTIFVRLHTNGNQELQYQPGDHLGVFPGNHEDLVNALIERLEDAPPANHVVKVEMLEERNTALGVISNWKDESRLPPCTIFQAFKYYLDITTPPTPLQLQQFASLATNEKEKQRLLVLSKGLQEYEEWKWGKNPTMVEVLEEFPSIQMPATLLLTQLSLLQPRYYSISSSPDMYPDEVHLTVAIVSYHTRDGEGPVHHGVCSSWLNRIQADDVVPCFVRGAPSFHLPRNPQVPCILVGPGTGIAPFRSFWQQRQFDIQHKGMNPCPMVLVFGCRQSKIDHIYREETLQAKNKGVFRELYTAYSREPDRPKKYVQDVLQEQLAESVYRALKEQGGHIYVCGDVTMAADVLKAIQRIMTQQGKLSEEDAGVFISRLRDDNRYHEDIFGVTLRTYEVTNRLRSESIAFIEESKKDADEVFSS
In assay [2] the target is T1, Nitric oxide synthase, inducible (Mus musculus, UniProt P29477).
T1 sequence (P29477 whole entry): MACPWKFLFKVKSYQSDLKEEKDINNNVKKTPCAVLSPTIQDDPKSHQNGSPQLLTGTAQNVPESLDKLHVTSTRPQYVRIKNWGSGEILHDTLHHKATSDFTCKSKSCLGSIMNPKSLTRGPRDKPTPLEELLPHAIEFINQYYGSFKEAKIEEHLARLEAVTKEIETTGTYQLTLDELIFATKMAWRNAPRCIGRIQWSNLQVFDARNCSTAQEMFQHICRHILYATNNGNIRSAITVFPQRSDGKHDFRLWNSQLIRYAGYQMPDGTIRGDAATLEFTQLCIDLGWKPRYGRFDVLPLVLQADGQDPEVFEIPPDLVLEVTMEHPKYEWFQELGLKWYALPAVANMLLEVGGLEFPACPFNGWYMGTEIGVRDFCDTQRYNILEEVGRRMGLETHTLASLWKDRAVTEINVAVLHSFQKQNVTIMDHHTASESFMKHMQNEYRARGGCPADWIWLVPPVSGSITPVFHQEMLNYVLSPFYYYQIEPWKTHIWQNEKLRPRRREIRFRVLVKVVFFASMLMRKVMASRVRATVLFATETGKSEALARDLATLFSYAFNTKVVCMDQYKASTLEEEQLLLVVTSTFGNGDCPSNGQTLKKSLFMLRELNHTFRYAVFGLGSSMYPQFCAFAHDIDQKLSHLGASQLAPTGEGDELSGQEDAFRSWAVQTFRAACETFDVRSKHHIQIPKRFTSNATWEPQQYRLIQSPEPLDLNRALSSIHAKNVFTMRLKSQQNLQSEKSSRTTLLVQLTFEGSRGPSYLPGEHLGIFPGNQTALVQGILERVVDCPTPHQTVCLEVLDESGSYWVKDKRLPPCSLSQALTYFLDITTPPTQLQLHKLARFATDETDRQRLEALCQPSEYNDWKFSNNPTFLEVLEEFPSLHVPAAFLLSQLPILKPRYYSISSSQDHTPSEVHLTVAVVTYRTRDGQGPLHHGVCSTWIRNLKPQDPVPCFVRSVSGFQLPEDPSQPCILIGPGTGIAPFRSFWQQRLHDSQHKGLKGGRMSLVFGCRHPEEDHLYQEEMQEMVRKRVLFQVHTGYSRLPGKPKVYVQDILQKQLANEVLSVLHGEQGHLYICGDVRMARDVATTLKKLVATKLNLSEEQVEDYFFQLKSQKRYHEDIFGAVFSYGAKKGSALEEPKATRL

The target of the next assay is T2, Nitric oxide synthase 3 (Bos taurus, UniProt P29473).
T2 sequence (P29473 whole entry): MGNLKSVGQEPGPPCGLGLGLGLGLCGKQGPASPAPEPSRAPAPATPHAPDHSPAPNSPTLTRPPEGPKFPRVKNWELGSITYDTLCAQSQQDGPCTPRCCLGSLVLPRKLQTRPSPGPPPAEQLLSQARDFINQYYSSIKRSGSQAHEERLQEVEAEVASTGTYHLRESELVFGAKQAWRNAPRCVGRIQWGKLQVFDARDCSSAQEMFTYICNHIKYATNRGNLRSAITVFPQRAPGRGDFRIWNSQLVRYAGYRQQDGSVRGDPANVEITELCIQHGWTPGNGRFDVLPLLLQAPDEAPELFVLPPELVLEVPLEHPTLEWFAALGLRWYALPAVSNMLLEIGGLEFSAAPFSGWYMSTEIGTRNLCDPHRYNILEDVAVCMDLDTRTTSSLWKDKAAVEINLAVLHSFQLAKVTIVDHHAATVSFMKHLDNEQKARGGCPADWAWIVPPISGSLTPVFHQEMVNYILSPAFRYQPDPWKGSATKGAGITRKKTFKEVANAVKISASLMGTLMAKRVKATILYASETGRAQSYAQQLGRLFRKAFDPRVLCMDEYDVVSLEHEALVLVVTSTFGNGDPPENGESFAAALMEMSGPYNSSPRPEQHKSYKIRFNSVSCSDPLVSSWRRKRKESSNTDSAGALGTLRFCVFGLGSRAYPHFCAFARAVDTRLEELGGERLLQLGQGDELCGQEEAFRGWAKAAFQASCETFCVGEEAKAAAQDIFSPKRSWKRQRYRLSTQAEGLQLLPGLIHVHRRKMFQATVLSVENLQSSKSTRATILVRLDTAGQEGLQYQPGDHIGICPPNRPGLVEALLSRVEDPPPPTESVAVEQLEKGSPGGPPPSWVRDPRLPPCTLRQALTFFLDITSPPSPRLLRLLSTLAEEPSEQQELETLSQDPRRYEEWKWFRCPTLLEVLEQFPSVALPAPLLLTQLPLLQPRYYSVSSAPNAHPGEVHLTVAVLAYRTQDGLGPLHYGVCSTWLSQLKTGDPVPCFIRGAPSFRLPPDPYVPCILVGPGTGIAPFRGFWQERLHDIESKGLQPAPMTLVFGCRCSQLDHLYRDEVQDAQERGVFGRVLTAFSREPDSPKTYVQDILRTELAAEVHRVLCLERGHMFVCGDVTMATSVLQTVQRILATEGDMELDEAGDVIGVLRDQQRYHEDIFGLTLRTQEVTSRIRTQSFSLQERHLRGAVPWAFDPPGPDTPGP
Description: Inhibition of recombinant bovine eNOS expressed in Escherichia coli assessed as nitric oxide production by hemoglobin capture assay.

A short description of assay [3]: Selectivity ratio of Ki for wild type recombinant rat nNOS to Ki for human nNOS.
The target in assay [4] is Nitric oxide synthase 1 (Homo sapiens, UniProt P29475).
Nitric oxide synthase 1 (Homo sapiens, UniProt P29475), sequence (P29475 whole entry): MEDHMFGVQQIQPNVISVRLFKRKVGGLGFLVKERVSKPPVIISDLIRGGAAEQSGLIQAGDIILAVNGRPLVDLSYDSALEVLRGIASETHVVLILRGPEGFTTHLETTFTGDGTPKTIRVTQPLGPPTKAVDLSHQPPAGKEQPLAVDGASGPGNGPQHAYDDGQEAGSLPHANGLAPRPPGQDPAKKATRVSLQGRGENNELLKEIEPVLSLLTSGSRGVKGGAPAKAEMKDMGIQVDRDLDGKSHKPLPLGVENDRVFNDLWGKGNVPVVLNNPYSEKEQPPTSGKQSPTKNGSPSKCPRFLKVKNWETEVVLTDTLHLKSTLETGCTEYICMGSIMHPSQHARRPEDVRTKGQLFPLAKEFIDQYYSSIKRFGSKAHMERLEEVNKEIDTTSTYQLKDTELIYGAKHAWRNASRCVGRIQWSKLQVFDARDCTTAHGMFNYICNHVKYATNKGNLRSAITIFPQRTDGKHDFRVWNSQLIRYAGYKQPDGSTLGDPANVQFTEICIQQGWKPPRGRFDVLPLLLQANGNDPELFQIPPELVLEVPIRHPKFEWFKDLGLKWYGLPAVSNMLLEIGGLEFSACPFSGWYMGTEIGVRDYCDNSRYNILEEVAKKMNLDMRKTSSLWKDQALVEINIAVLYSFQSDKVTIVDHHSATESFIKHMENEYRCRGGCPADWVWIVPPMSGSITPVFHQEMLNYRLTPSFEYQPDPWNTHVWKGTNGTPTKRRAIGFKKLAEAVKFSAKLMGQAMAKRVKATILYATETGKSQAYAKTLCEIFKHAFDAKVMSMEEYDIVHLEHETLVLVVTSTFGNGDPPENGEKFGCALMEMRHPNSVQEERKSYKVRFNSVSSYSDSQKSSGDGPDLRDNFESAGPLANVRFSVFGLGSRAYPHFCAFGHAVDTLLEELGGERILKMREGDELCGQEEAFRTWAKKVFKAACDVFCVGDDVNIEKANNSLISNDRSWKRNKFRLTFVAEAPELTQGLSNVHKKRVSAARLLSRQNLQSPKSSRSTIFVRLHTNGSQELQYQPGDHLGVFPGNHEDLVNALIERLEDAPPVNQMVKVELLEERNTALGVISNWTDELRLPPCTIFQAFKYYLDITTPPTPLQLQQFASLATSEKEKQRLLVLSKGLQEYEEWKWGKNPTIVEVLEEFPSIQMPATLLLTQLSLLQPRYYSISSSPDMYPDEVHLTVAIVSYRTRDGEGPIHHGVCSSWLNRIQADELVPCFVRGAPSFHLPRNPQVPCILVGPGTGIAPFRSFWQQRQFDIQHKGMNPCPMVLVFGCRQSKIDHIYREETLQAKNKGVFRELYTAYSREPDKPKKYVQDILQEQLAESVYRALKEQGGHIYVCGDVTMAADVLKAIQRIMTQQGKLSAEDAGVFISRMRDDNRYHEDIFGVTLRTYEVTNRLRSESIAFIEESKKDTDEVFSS
Assay [5] is described as follows: Selectivity ratio of Ki for wild type recombinant rat nNOS to Ki for bovine eNOS.

Molecules are shown by their SMILES. Where only a bound is given, the exact number is not on record here.

As to `CNCc1cccc(NCc2ccc3ccc(N)nc3c2)c1`, the Ki on Nitric oxide synthase 1 [1] turned out to be 0.569 µM.
Take `CNC(C)c1cccc(OCc2ccc3ccc(N)nc3c2)c1` (racemic): the inhibition constant Ki stood at 67.1 µM in assay [2] and 0.36 µM at Nitric oxide synthase 1 [1].
As to `CNCc1cc(OCc2ccc3ccc(N)nc3c2)ccc1F`, the Ki in assay [2] was 11.4 µM.
`CN(C)c1cccc(OCc2ccc3ccc(N)nc3c2)c1`: the Ki at Nitric oxide synthase 1 [1] is more than 5.75 µM.
As for `CNCc1cncc(OCc2ccc3ccc(N)nc3c2)c1`, the inhibition constant Ki in assay [2] was found to be 13.5 µM; on Nitric oxide synthase 3, 3.31 µM; at Nitric oxide synthase 1 [4], 0.507 µM; at Nitric oxide synthase 1 [1] it was 0.043 µM. Further, the figures for the Ratio Ki in assay [3] and in assay [5] were 11.8 and 77, respectively.
Consider `CN(C)CCOc1cccc(OCc2ccc3ccc(N)nc3c2)c1`, for which the Ki is 178 µM in assay [2] and 31 µM at Nitric oxide synthase 3. Further, the Ratio Ki in assay [5] is 44.
With `CNCc1ccc(OCc2ccc3ccc(N)nc3c2)cc1`, the figures for the Ki (in assay [2]; at Nitric oxide synthase 1 [1]) were 48.7 µM and 0.332 µM, respectively.
Consider `CN(C)CCc1cccc(OCc2ccc3ccc(N)nc3c2)c1`, for which the inhibition constant Ki stood at 150 µM in assay [2], 17.7 µM at Nitric oxide synthase 3 and 0.468 µM at Nitric oxide synthase 1 [1].
As for `CN(C)CCCc1cccc(OCc2ccc3ccc(N)nc3c2)c1`, the Ki at Nitric oxide synthase 1 [1] is 0.652 µM.
As for `Nc1ccc2ccc(COc3cccnc3)cc2n1`, the inhibition constant (Ki) at Nitric oxide synthase 1 [1] turned out to be 0.712 µM.
